According to article PMC4286029 (Inflammation Research, 2014):

Key:
Lyn = target: T1, Lyn (Homo sapiens, UniProt P07948); assay: KinaseProfiler selectivity: Lyn; format: biochemical
T1 construct: purchased Millipore Co. Ltd. (KinaseProfiler service)
Experimental: (§1) […]; The selectivity of JTE-052 for other kinases was assessed using KinaseProfiler™ (Millipore Co. Ltd.). […].

IKKβ = target: T2, IKKβ (Homo sapiens, UniProt O14920); assay: KinaseProfiler selectivity: IKKβ; format: biochemical
T2 construct: purchased Millipore Co. Ltd. (KinaseProfiler service)
T2 sequence (O14920 whole entry, species assumed): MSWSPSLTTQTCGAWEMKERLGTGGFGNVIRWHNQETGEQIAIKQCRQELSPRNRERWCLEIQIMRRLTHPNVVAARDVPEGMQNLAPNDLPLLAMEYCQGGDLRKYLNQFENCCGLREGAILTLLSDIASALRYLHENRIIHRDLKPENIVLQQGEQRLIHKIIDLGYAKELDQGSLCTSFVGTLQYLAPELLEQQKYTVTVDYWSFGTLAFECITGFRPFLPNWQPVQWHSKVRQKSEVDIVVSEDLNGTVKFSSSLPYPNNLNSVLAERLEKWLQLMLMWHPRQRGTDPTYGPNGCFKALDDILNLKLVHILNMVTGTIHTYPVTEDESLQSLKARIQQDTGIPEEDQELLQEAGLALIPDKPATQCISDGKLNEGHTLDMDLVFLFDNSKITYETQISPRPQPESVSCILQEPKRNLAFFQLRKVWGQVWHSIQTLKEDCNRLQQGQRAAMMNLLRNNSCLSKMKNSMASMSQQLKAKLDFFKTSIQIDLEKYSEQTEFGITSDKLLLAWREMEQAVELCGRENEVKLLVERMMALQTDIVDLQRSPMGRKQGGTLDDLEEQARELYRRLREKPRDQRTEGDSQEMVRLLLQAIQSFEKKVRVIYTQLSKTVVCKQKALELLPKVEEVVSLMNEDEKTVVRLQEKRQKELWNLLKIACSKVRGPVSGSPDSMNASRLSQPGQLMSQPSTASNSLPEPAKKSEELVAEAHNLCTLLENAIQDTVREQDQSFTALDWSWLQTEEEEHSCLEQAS
Experimental: as §1

Abl = target: T3, Abl (Homo sapiens, UniProt P00519); assay: KinaseProfiler selectivity: Abl; format: biochemical
T3 construct: purchased Millipore Co. Ltd. (KinaseProfiler service)
T3 sequence (P00519 whole entry, species assumed): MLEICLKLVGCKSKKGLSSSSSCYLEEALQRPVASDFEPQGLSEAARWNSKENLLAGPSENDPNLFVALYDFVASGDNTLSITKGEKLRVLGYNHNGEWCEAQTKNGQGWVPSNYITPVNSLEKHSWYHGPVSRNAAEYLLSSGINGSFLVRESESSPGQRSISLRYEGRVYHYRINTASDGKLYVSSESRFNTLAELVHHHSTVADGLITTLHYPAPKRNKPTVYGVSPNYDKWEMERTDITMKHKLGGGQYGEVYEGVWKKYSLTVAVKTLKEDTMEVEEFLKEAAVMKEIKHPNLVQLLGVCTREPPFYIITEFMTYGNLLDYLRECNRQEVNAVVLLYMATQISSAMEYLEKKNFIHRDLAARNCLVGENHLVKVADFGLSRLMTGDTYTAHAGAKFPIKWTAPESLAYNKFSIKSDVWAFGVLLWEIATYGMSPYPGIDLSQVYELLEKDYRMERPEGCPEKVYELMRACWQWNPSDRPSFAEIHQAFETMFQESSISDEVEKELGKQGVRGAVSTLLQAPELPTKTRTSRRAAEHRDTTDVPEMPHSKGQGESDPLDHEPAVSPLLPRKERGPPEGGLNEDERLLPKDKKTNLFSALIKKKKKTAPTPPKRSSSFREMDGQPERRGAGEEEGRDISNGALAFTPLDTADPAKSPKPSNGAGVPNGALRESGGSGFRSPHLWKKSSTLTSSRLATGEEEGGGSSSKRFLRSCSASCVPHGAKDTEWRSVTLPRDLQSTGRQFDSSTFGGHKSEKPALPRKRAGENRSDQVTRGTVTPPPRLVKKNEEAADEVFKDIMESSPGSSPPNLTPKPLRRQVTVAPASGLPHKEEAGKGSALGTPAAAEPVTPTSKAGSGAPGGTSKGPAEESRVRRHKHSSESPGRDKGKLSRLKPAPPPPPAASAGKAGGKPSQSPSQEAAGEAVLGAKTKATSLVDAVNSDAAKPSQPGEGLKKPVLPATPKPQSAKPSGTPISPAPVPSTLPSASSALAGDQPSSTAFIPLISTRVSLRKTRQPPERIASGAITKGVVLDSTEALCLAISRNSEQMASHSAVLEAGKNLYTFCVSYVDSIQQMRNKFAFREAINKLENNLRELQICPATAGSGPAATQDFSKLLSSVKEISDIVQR
Experimental: as §1

Syk = target: T4, Syk (Homo sapiens, UniProt P43405); assay: KinaseProfiler selectivity: Syk; format: biochemical
T4 construct: purchased Millipore Co. Ltd. (KinaseProfiler service)
Experimental: as §1

PDGFRβ = target: T5, PDGFRβ (Homo sapiens, UniProt P09619); assay: KinaseProfiler selectivity: PDGFRβ; format: biochemical
T5 construct: purchased Millipore Co. Ltd. (KinaseProfiler service)
T5 sequence (P09619 33-1106, species assumed): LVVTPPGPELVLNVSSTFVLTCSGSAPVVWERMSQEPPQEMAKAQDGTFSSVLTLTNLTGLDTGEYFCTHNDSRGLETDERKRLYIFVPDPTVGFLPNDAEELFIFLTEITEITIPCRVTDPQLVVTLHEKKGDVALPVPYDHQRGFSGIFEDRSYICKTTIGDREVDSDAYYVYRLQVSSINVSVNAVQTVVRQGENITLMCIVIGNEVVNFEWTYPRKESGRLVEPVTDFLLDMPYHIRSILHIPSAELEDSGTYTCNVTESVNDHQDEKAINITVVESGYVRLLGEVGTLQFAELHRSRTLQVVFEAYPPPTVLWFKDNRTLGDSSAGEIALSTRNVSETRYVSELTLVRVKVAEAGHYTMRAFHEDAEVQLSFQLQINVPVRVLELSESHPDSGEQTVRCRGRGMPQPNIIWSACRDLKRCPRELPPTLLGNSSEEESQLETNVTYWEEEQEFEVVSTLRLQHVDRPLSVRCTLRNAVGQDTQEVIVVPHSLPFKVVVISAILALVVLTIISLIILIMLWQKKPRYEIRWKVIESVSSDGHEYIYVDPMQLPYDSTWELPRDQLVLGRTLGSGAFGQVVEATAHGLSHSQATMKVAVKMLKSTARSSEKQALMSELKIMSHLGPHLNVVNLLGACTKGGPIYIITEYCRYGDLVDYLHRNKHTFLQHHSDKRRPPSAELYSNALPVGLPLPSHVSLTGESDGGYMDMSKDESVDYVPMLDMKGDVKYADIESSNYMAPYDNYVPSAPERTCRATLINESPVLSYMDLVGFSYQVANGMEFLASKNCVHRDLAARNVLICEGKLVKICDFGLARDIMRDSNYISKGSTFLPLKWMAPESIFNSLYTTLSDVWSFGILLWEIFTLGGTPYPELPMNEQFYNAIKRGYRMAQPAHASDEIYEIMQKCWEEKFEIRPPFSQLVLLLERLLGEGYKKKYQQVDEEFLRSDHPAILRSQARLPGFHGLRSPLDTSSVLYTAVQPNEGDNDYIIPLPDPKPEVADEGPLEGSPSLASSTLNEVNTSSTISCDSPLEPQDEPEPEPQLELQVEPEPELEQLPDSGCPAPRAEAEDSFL
Experimental: as §1

[1] = Cytotoxicity: fibroblast (NHLF) proliferation ([3H]thymidine); conditions: human, normal human lung fibroblasts (NHLF)
Experimental: For determination of cytotoxicity, fibroblast proliferation was measured.

T1 sequence (P07948 whole entry, species assumed): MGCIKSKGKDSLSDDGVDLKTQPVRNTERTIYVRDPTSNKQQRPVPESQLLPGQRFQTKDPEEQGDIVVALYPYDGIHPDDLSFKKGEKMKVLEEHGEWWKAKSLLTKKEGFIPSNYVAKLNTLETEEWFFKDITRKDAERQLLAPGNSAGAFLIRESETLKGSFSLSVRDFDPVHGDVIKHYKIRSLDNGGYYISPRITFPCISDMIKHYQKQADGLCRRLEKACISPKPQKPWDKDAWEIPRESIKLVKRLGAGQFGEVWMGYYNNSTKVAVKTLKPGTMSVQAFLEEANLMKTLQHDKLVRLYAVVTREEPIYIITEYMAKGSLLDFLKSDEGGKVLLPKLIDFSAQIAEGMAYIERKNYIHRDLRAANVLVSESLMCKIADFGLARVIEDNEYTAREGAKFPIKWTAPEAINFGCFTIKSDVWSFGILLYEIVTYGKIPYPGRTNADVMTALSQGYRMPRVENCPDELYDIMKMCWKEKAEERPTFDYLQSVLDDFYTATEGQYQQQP

For `C[C@H]1CN(C(=O)CC#N)[C@]12CCN(c1ncnc3[nH]ccc13)C2` [JTE-052], the IC50 (Lyn) was greater than 1 µM, the IC50 (IKKβ) was greater than 1 µM and the IC50 (Abl) was greater than 1 µM. For the same compound, the IC50 (Syk) was greater than 1 µM, the IC50 (PDGFRβ) was greater than 1 µM and the IC50 at 3 days [1] was greater than 10 µM.
